Reference: ChEMBL document CHEMBL3860037, “Design, synthesis and biological characterization of a new class of osteogenic (1H)-quinolone derivatives” (Eur J Med Chem, 2016)
Each block holds one compound with its values, some of them ahead of it. Active and inactive are the calls of the source. No cut-off for these calls is given here.

Experiments:
[1] = molecular target: Protein smoothened (Mus musculus) (UniProt P56726); test: Activity at Smo in mouse C3H10T1/2 cells assessed as induction of cell differentiation into osteoblast at 10 uM incubated for 6 days by alkaline phosphatase assay relative to GSA-10; assay type: cell-based; conditions: C3H 10T1/2
Chain of Protein smoothened (Mus musculus) (P56726 whole entry): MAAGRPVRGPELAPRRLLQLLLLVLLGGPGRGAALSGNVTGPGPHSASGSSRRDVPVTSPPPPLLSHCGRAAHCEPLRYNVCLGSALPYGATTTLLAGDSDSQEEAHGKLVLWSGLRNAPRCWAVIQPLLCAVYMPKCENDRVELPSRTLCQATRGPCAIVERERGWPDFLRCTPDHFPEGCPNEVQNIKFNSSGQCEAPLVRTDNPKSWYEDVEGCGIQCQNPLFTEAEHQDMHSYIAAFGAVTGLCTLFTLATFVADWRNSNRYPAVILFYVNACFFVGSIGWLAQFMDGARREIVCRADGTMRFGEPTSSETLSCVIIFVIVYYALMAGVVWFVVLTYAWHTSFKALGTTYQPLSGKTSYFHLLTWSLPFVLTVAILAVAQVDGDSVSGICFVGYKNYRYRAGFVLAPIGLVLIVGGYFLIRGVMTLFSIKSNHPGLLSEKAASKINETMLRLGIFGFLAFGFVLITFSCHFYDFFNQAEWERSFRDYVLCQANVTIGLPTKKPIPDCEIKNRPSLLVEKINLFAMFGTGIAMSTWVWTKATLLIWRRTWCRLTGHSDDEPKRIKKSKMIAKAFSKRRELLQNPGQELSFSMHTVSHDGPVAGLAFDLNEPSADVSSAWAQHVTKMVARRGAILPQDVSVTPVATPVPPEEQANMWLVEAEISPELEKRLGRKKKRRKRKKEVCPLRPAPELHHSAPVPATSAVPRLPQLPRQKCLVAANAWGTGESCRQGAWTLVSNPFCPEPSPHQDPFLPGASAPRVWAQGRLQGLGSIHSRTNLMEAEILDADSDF

[2] = molecular target: Protein smoothened (Mus musculus) (UniProt P56726); test: Agonist activity at Smo in mouse C3H10T1/2 cells assessed as effect on Gli3 expression at 10 uM after 48 hrs by RT-PCR method relative to vehicle-treated control; assay type: cell-based; conditions: C3H 10T1/2
[3] = molecular target: Protein smoothened (Mus musculus) (UniProt P56726); test: Activity at Smo in mouse C3H10T1/2 cells assessed as induction of cell differentiation into osteoblast incubated for 6 days by alkaline phosphatase assay; assay type: cell-based; conditions: C3H 10T1/2
[4] = molecular target: Protein smoothened (Mus musculus) (UniProt P56726); test: Agonist activity at Smo in mouse C3H10T1/2 cells assessed as effect on Smo expression at 10 uM after 48 hrs by RT-PCR method relative to vehicle-treated control; assay type: cell-based; conditions: C3H 10T1/2
[5] = molecular target: Protein smoothened (Mus musculus) (UniProt P56726); test: Agonist activity at Smo in mouse C3H10T1/2 cells assessed as effect on Gli1 expression at 10 uM after 48 hrs by RT-PCR method relative to vehicle-treated control; assay type: cell-based; conditions: C3H 10T1/2
[6] = molecular target: Protein smoothened (Mus musculus) (UniProt P56726); test: Agonist activity at Smo in mouse C3H10T1/2 cells assessed as effect on Gli2 expression at 10 uM after 48 hrs by RT-PCR method relative to vehicle-treated control; assay type: cell-based; conditions: C3H 10T1/2
[7] = molecular target: Protein smoothened (Mus musculus) (UniProt P56726); test: Antagonist activity at Smo in mouse NIH/3T3 cells transfected with Gli-dependent firefly luciferase reporter assessed as inhibition of SAG-induced maximal stimulation of Gli transcription factor at 1 uM incubated for 40 hrs relative to control; assay type: cell-based
[8] = molecular target: Protein smoothened (Mus musculus) (UniProt P56726); test: Activity at Smo in mouse C3H10T1/2 cells assessed as induction of cell differentiation into osteoblast at 0.3 uM in presence of phosphodiesterase inhibitor IBMX incubated for 6 days by alkaline phosphatase assay; assay type: cell-based; conditions: C3H 10T1/2
[9] = molecular target: T1, Coelenterazine h 2-monooxygenase (Renilla reniformis) (UniProt P27652); test: Induction of Renilla reniformis luciferase activity at 10 uM relative to control
T1 sequence (whole entry): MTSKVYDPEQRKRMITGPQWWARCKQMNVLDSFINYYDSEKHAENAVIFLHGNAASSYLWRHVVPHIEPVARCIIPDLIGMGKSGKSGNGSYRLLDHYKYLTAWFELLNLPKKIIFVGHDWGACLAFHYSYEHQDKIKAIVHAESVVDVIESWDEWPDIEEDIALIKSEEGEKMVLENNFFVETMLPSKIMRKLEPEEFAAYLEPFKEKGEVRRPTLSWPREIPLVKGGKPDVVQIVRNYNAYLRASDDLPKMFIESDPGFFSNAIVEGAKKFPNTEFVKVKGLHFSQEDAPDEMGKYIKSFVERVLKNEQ

[10] = molecular target: Protein smoothened (Mus musculus) (UniProt P56726); test: Activity at Smo in mouse C3H10T1/2 cells assessed as induction of cell differentiation into osteoblast at 0.3 uM in presence of adenylate cyclase activator forskolin incubated for 6 days by alkaline phosphatase assay; assay type: cell-based; conditions: C3H 10T1/2
[11] = molecular target: Protein smoothened (Mus musculus) (UniProt P56726); test: Potency index, ratio of GSA-10 EC50 to compound EC50 for activity at Smo in mouse C3H10T1/2 cells assessed as induction of cell differentiation into osteoblast; assay type: cell-based; conditions: C3H 10T1/2
[12] = molecular target: Protein smoothened (Mus musculus) (UniProt P56726); test: Agonist activity at Smo in mouse C3H10T1/2 cells assessed as effect on Ptc1 expression at 10 uM after 48 hrs by RT-PCR method relative to vehicle-treated control; assay type: cell-based; conditions: C3H 10T1/2
[13] = molecular target: Protein smoothened (Mus musculus) (UniProt P56726); test: Activity at Smo in mouse C3H10T1/2 cells assessed as induction of cell differentiation into osteoblast at 1 uM in presence of adenylate cyclase activator forskolin incubated for 6 days by alkaline phosphatase assay; assay type: cell-based; conditions: C3H 10T1/2
[14] = molecular target: Protein smoothened (Mus musculus) (UniProt P56726); test: Activity at Smo in mouse C3H10T1/2 cells assessed as induction of cell differentiation into osteoblast at 1 uM in presence of phosphodiesterase inhibitor IBMX incubated for 6 days by alkaline phosphatase assay; assay type: cell-based; conditions: C3H 10T1/2
[15] = molecular target: Protein smoothened (Rattus norvegicus) (UniProt P97698); test: Agonist activity at Smo in cerebellar granule cell precursors isolated from rat at postnatal day 8 assessed as stimulation of proliferation by [3H]-thymidine incorporation assay
Chain of Protein smoothened (Rattus norvegicus) (P97698 whole entry): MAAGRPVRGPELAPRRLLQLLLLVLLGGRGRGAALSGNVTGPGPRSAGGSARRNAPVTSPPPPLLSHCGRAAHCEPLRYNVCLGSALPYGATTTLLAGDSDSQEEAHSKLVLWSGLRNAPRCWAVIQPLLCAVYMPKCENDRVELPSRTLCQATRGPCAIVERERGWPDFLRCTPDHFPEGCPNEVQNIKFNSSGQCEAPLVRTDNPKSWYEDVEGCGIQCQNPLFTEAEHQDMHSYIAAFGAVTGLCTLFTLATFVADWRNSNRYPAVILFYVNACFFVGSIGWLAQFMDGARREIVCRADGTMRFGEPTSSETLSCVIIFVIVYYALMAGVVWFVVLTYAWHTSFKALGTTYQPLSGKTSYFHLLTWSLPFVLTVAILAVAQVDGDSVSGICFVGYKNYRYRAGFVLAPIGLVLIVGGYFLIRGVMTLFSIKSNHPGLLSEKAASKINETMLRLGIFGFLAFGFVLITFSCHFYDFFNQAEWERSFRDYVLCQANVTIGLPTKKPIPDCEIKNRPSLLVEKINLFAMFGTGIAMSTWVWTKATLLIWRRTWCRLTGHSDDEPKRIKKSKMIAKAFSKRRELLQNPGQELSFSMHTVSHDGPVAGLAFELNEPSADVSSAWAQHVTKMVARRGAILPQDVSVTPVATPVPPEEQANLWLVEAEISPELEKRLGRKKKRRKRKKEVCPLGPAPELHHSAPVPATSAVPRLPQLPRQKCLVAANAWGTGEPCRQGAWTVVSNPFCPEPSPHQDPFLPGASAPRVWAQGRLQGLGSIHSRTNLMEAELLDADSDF

[16] = molecular target: Protein smoothened (Mus musculus) (UniProt P56726); test: Agonist activity at Smo in mouse C3H10T1/2 cells assessed as effect on Ptc1 expression at 1 uM after 48 hrs by RT-PCR method relative to vehicle-treated control; assay type: cell-based; conditions: C3H 10T1/2
[17] = molecular target: Protein smoothened (Mus musculus) (UniProt P56726); test: Agonist activity at Smo in mouse C3H10T1/2 cells assessed as induction of cell differentiation into osteoblast incubated for 6 days by alkaline phosphatase assay; assay type: cell-based; conditions: C3H 10T1/2
[18] = molecular target: Protein smoothened (Mus musculus) (UniProt P56726); test: Induction of Smo translocation to primary cilium in mouse NIH/3T3 cells at 1 uM after overnight incubation by DAPI staining-based immunofluorescence assay relative to control; assay type: cell-based
[19] = molecular target: Protein smoothened (Mus musculus, UniProt P56726); test: Agonist activity at Smo in mouse NIH/3T3 cells transfected with Gli-dependent firefly luciferase reporter assessed as stimulation of Gli transcription factor; assay type: cell-based
Chain of Protein smoothened (P56726 whole entry): as the sequence (P56726 whole entry) above

[20] = molecular target: Protein smoothened (Mus musculus) (UniProt P56726); test: Agonist activity at Smo in mouse C3H10T1/2 cells assessed as effect on Gli1 expression at 1 uM after 48 hrs by RT-PCR method relative to vehicle-treated control; assay type: cell-based; conditions: C3H 10T1/2
[21] = molecular target: Protein smoothened (Mus musculus) (UniProt P56726); test: Agonist activity at Smo in mouse C3H10T1/2 cells assessed as effect on Gli2 expression at 1 uM after 48 hrs by RT-PCR method relative to vehicle-treated control; assay type: cell-based; conditions: C3H 10T1/2
[22] = molecular target: Protein smoothened (Mus musculus) (UniProt P56726); test: Agonist activity at Smo in mouse C3H10T1/2 cells assessed as effect on Gli3 expression at 1 uM after 48 hrs by RT-PCR method relative to vehicle-treated control; assay type: cell-based; conditions: C3H 10T1/2
[23] = molecular target: Protein smoothened (Mus musculus) (UniProt P56726); test: Agonist activity at Smo in mouse NIH/3T3 cells transfected with Gli-dependent firefly luciferase reporter assessed as stimulation of Gli transcription factor incubated for 40 hrs; assay type: cell-based
[24] = molecular target: Protein smoothened (Mus musculus) (UniProt P56726); test: Agonist activity at Smo in mouse C3H10T1/2 cells assessed as induction of cell differentiation into osteoblast at 10 uM incubated for 6 days by alkaline phosphatase assay relative to GSA-10; assay type: cell-based; conditions: C3H 10T1/2
[25] = molecular target: Protein smoothened (Mus musculus) (UniProt P56726); test: Agonist activity at Smo in mouse C3H10T1/2 cells assessed as effect on Smo expression at 1 uM after 48 hrs by RT-PCR method relative to vehicle-treated control; assay type: cell-based; conditions: C3H 10T1/2

SMILES: CCCCCCn1c(=O)c(C(=O)Nc2ccc(C(=O)OC(C)(C)C)cc2)c(O)c2ccccc21
max activation [1]: 69%

max activation [1]: 105%
SMILES: CCCOC(=O)c1ccc(NC(=O)c2c(O)c3ccccc3n(CCC)c2=O)cc1

SMILES: CCCCCCn1c(=O)c(C(=O)Nc2ccc(C(=O)NCCC)cc2)c(O)c2ccccc21
max activation [1]: 1.6%

SMILES: CCCCCCn1c(=O)c(C(=O)Nc2ncc([N+](=O)[O-])s2)c(O)c2ccccc21
max activation [1]: 3%

SMILES: CCCCn1c(=O)c(C(=O)Nc2ccc(C(=O)OCCC)cc2)c(O)c2ccccc21
max activation [1]: 135%

max activation [1]: 1%
SMILES: CCCOC(=O)c1ccc(NC(=O)c2c(O)c3ccccc3n(C)c2=O)cc1

SMILES: CCCCCCn1c(=O)c(C(=O)Nc2ccc(C(=O)OCCCC)cc2)c(O)c2ccccc21
max activation [1]: 88%

max activation [1]: 85%
SMILES: CCCOC(=O)c1ccc(NC(=O)c2c(O)c3cc(C)ccc3n(CCC)c2=O)cc1

max activation [1]: 41%
SMILES: CCCOC(=O)c1ccc(NC(=O)c2c(O)c3cc(Cl)ccc3n(CCC)c2=O)cc1

max activation [1]: 98%
SMILES: CCCOC(=O)c1ccc(NC(=O)c2c(O)c3cc(F)ccc3n(CCC)c2=O)cc1

SMILES: CCCCCCn1c(=O)c(C(=O)Nc2ccc(OCC)cc2)c(O)c2ccccc21
max activation [1]: 1%

max activation [1]: 22%
SMILES: C=CCn1c(=O)c(C(=O)Nc2ccc(C(=O)OCCC)cc2)c(O)c2ccccc21

SMILES: CCCCCCn1c(=O)c(C(=O)Nc2ccc(C(=O)O)cc2)c(O)c2ccccc21
fold change (FC) [2]: 0.98
max activation [1]: 137%
Activity [3]: Dose-dependent effect
fold change (FC) [4]: 0.92
fold change (FC) [5]: 0.05
fold change (FC) [6]: 1.63
inhibition [7]: 26%
Activity [8]: Active
Activity [9]: < 20%
Activity [10]: Active
Ratio EC50 [11]: 2
fold change (FC) [12]: 0.26

SMILES: CCCCCn1c(=O)c(C(=O)Nc2ccc([N+](=O)[O-])cc2O)c(O)c2ccccc21
max activation [1]: 3%

SMILES: CCCCCCn1c(=O)c(C(=O)Nc2ccc(C(=O)OCCC)cc2)c(O)c2ccccc21
fold change (FC) [2]: 0.85
Activity [3]: Dose-dependent effect
fold change (FC) [4]: 0.8
fold change (FC) [5]: 0.05
Activity [13]: Active
fold change (FC) [6]: 1.35
Activity [14]: Active
inhibition [7]: 31%
Activity [9]: < 20%
fold change (FC) [12]: 0.33

SMILES: CCCCCn1c(=O)c(C(=O)Nc2ccc(C(=O)OCCC)cc2)c(O)c2ccccc21
max activation [1]: 138%

SMILES: CCCCCCn1c(=O)c(C(=O)Nc2ccc(C(=O)OCCC)c(Cl)c2)c(O)c2ccccc21
max activation [1]: 11%

SMILES: CCCCCCn1c(=O)c(C(=O)Nc2cccc(C(=O)OC(C)(C)C)c2)c(O)c2ccccc21
max activation [1]: 1.3%

SMILES: CCCCCCn1c(=O)c(C(=O)Nc2ccc(C(=O)OCc3ccccc3)cc2)c(O)c2ccccc21
max activation [1]: 47%

SMILES: CCCCCn1c(=O)c(C(=O)Nc2ccc(C(=O)OCCCC)cc2)c(O)c2ccccc21
max activation [1]: 123%

SMILES: CCCCCCn1c(=O)c(C(=O)Nc2ccc(C(=O)OCC)cc2)c(O)c2ccccc21
max activation [1]: 62%

fold change (FC) [2]: 0.86
max activation [1]: 138%
Activity [3]: Dose-dependent effect
fold change (FC) [4]: 0.81
fold change (FC) [5]: 0.04
fold change (FC) [6]: 1.49
inhibition [7]: 54%
Activity [8]: Active
Activity [9]: < 20%
Activity [10]: Active
Ratio EC50 [11]: 3
fold change (FC) [12]: 0.27
SMILES: CCCOC(=O)c1ccc(NC(=O)c2c(O)c3cc(OC)c(OC)cc3n(CCC)c2=O)cc1

Activity [15]: Active
fold change (FC) [16]: 5.32
Activity [17]: Dose-dependent effect
Activity [18]: > 60%
EC50 [19]: 30 nM
fold change (FC) [20]: 7.83
fold change (FC) [21]: 1.24
fold change (FC) [22]: 0.72
Activity [23]: Active
Activity [9]: < 20%
max activation [24]: 75%
fold change (FC) [25]: 0.9
SMILES: CN[C@H]1CC[C@H](N(Cc2cccc(-c3ccncc3)c2)C(=O)c2sc3ccccc3c2Cl)CC1

SMILES: CCCCCCn1c(=O)c(C(=O)Nc2cc(C)cc(C(=O)OCCC)c2)c(O)c2ccccc21
max activation [1]: 3%

SMILES: CCCCCCn1c(=O)c(C(=O)Nc2ccc(C(N)=O)cc2)c(O)c2ccccc21
max activation [1]: 1%

SMILES: CCCCCc1nc2ccccc2c(=O)n1NC(=O)c1c(O)c2ccccc2n(CC)c1=O
max activation [1]: 5%

SMILES: CCCCCCn1c(=O)c(C(=O)Nc2cccc(C(=O)OCC)c2)c(O)c2ccccc21
max activation [1]: 1.7%

max activation [1]: 78%
SMILES: c1ccc2c(Oc3nc(Nc4ccc(N5CCOCC5)cc4)c4ncn(C5CCCCC5)c4n3)cccc2c1

SMILES: CCCCCCn1c(=O)c(C(=O)Nc2cccc(C(=O)OCCC)c2C(F)(F)F)c(O)c2ccccc21
max activation [1]: 1.4%

SMILES: CCCCCn1c(=O)c(C(=O)Nc2ccc(C(=O)OCC)cc2)c(O)c2ccccc21
max activation [1]: 76%

SMILES: CCCCCn1c(=O)c(C(=O)Nc2ccc([N+](=O)[O-])cc2)c(O)c2ccccc21
max activation [1]: 5%

SMILES: CCOC(=O)c1ccc(NC(=O)c2c(O)c3ccccc3n(Cc3ccccc3)c2=O)cc1
max activation [1]: 4%

SMILES: CCCCCCn1c(=O)c(C(=O)Nc2nc(CC(=O)OCC)cs2)c(O)c2ccccc21
max activation [1]: 3%

SMILES: CCCCCCn1c(=O)c(C(=O)Nc2ccc(C(=O)NCCCC)cc2)c(O)c2ccccc21
max activation [1]: 92%

SMILES: CCCCCCn1c(=O)c(C(=O)Nc2ccc(C(=O)OC(C)C)cc2)c(O)c2ccccc21
max activation [1]: 33%

SMILES: CCCOC(=O)c1ccc(NC(=O)c2c(O)c3ccccc3n(Cc3ccccc3)c2=O)cc1
max activation [1]: 7%

max activation [1]: 38%
SMILES: CCCOC(=O)c1ccc(NC(=O)c2c(O)c3cccc4c3n(c2=O)CCC4)cc1

SMILES: CCCCCCn1c(=O)c(C(=O)Nc2cccc(C(=O)OCCC)c2)c(O)c2ccccc21
max activation [1]: 2%
